pIC50: −log10 of the molar value.
Columns and labels:
p38α mRNA = assay: Reduction of p38α mRNA in fibroblasts; format: cell-based; settings: read-out: IC50 for reducing p38α mRNA
[1] = test system: ovalbumin (OVA)-induced airway hyperresponsiveness and allergic inflammation; assay: Mouse model of allergic inflammation (OVA), aerosol oligonucleotide administration; format: in vivo
Procedure: In the mouse model of allergic inflammation, mice were sensitized and challenged with aerosolized chicken ovalbumin (OVA). Airway responsiveness was assessed by inducing airflow obstruction with a methacholine aerosol using a noninvasive method. This methodology utilized unrestrained conscious mice that are placed into the main chamber of a plthysmograph (Buxco Electronics, Inc., Troy, N.Y.). Pressure differences between this chamber and a reference chamber were used to extrapolate minute volume, breathing frequency and enhanced pause (Penh). Penh is a dimensionless parameter that is a function of total pulmonary airflow in mice (i.e., the sum of the airflow in the upper and lower respiratory tracts) during the respiratory cycle of the animal. The lower the Penh, the greater the airflow. This parameter closely correlates with lung resistance as measured by traditional invasive techniques using ventilated animals (Hamelmann et al., 1997). Dose-response data were plotted as raw Penh values to increasing concentrations of methacholine. This system was used to test the efficacy of an antisense oligonucleotide targeted to mouse p38α (ISIS 101757; SEQ ID NO: 177). Mismatched p38α oligonucleotide (ISIS 101758; SEQ ID NO: 266) was used as a negative control.
[…]. […] AHR was measured 24 hours after OVA challenge.
Animals were injected with a lethal dose of ketamine, the trachea was exposed and a cannula was inserted and secured by sutures. The lungs were lavaged twice with 0.5 ml aliquots of ice cold PBS with 0.2% FCS. The recovered BAL fluid was centrifuged at 1,000 rpm for 10 min at 4° C., frozen on dry ice and stored at −80° C. until used. Luminex was used to measure cytokine levels in BAL fluid and serum.
Cytospins of cells recovered from BAL fluid were prepared using a Shandon Cytospin 3 (Shandon Scientific LTD, Cheshire, England). Cell differentials were performed from slides stained with Leukostat (Fisher Scientific, Pittsburgh, Pa.). Total cell counts were quantified by hemocytometer and, together with the percent type by differential, were used to calculate specific cell number.
Before resection, lungs were inflated with 0.5 ml of 10% phosphate-buffered formalin and fixed overnight at 4° C. The lung samples were washed free of formalin with 1×PBS and subsequently dehydrated through an ethanol series prior to equilibration in xylene and embedded in paraffin. Sections (6μ) were mounted on slides and stained with hematoxylin/eosin, massons trichome and periodic acid-schiff (PAS) reagent. Parasagittal sections were analyzed by bright-field microscopy. Mucus cell content was assessed as the airway epithelium staining with PAS. Relative comparisons of mucus content were made between cohorts of animals by counting the number of PAS-positive airways.

[2] = sensitized mice, aerosol, compared to the mismatched control

ISIS 101757: antisense oligonucleotide targeted to mouse p38α, SEQ ID NO 177; 2′-MOE gapmer, all phosphorothioate linkages (antisense AGGTGCTCAGGACTCCATTT; all phosphorothioate, sugars by position and methylation of C not given here; 2'-MOE gapmer)
pIC50 (p38α mRNA): ~6.60
provocation concentration of methacholine required to achieve doubling of airway reactivity (PC200) ([1]; OVA-challenged mice, inhaled): increases
methacholine-induced AHR ([1]; OVA-sensitized mice, aerosol, whole body plethysmography): dose-dependently suppressed
OVA-induced increases in eosinophils recovered in BAL fluid ([1]; aerosol): significantly (P<0.05) reduced
OVA-induced increases in total cell counts recovered in BAL fluid ([1]; aerosol): significantly (P<0.05) reduced
OVA-induced inflammatory cell infiltration into the lungs (H&E stain) ([1]; aerosol, histology): markedly inhibited
mucus hypersecretion in the airway epithelium (PAS stain) ([1]; aerosol, histology): markedly inhibited
blood levels of OVA-specific IgE [1, 2]: significantly (P<0.05);lowered
blood levels of OVA-specific IgG1 [1, 2]: significantly (P<0.05);lowered
blood levels of total IgE [1, 2]: significantly (P<0.05);lowered
